# Assay results published in patent publication US20240018123A1, “COMPOUND FOR INHIBITING OR DISINTEGRATING ANDROGEN RECEPTOR, AND PHARMACEUTICAL USE THEREOF” (KOREA RESEARCH INSTITUTE OF CHEMICAL TECHNOLOGY, priority 2020, published 2024).
# Tested on: VCaP cells
# Test: Cytotoxicity assessment (Cell-titer-glo cell viability), VCaP
# Settings: read-out: VCaP (CC50); VCaP cells, 6 days of treatment, Cell-titer-glo, vs DMSO
# Protocol: In order to evaluate the androgen receptor (AR) cytotoxicity of the compounds according to the present invention, the following experiment was conducted. Specifically, 1.5×10^3 (LNCaP) or 4×10^3 (VCaP, 22RV1), respectively, of LNCaP, VCaP, and 22RV1 cells were injected into each well of a 96-well plate. The next day, each well was treated with the compound at a final concentration of 3 nM, 10 nM, 30 nM, 100 nM, 300 nM, 1 μM, 3 μM, and 10 μM. […] After 6 days of treatment, Cell-titer-glo (promega) was treated and reacted for 10 minutes, and cell viability was measured with a multimode plate reader (PerkinElmer, Inc.), and the change was quantified compared to when DMSO was treated.
row,SMILES,CC50 [µM]
1,"CC1(C)C(NC(=O)c2ccc(C#CCC3CCN(CC4CCN(C(=O)CNc5ccc6nnn(C7CCC(=O)NC7=O)c(=O)c6c5)CC4)CC3)cc2)C(C)(C)C1Oc1ccc(C#N)c(Cl)c1 (centres unmarked) [Example 118, N-((1r,3r)-3-(3-chloro-4-cyanophenoxy)-2,2,4,4-tetramethylcyclobutyl)-4-(3-(1-((1-((3-(2,6-dioxopiperidin-3-yl)-4-oxo-3,4-dihydrobenzo[d][1,2,3]triazin-6-yl)glycyl)piperidin-4-yl)methyl)piperidin-4-yl)prop-1-yn-1-yl)benzamide]",0.017
2,"CC1(C)C(NC(=O)c2ccc(C#CCC3CCN(CC4CCN(C(=O)COc5ccc6nnn(C7CCC(=O)NC7=O)c(=O)c6c5)CC4)CC3)cc2)C(C)(C)C1Oc1ccc(C#N)c(Cl)c1 (centres unmarked) [Example 119, N-((1r,3r)-3-(3-chloro-4-cyanophenoxy)-2,2,4,4-tetramethylcyclobutyl)-4-(3-(1-((1-(2-((3-(2,6-dioxopiperidin-3-yl)-4-oxo-3,4-dihydrobenzo[d][1,2,3]triazin-6-yl)oxy)acetyl)piperidin-4-yl)methyl)piperidin-4-yl)prop-1-yn-1-yl)benzamide]",0.036
3,"CC1(C)C(NC(=O)c2ccc(-n3cc(CN4CCN(c5ccc6nnn(C7CCC(=O)NC7=O)c(=O)c6c5)CC4)nn3)cc2)C(C)(C)C1Oc1ccc(C#N)c(Cl)c1 (centres unmarked) [Example 120, N-((1r,3r)-3-(3-chloro-4-cyanophenoxy)-2,2,4,4-tetramethylcyclobutyl)-4-(4-((4-(3-(2,6-dioxopiperidin-3-yl)-4-oxo-3,4-dihydrobenzo[d][1,2,3]triazin-6-yl)piperazin-1-yl)methyl)-1H-1,2,3-triazol-1-yl)benzamide]",0.0297
4,"CC1(C)C(NC(=O)c2ccc(-n3cc(CN4CCN(C(=O)C5CCN(c6ccc7nnn(C8CCC(=O)NC8=O)c(=O)c7c6)CC5)CC4)nn3)cc2)C(C)(C)C1Oc1ccc(C#N)c(Cl)c1 (centres unmarked) [Example 121, N-((1r,3r)-3-(3-chloro-4-cyanophenoxy)-2,2,4,4-tetramethylcyclobutyl)-4-(4-((4-(1-(3-(2,6-dioxopiperidin-3-yl)-4-oxo-3,4-dihydrobenzo[d][1,2,3]triazin-6-yl)piperidine-4-carbonyl)piperazin-1-yl)methyl)-1H-1,2,3-triazol-1-yl)benzamide]",0.018
5,"CC1(C)C(NC(=O)c2ccc(-n3cc(CN4CCN(C(=O)C5CN(c6ccc7nnn(C8CCC(=O)NC8=O)c(=O)c7c6)C5)CC4)nn3)cc2)C(C)(C)C1Oc1ccc(C#N)c(Cl)c1 (centres unmarked) [Example 122, N-((1r,3r)-3-(3-chloro-4-cyanophenoxy)-2,2,4,4-tetramethylcyclobutyl)-4-(4-((4-(1-(3-(2,6-dioxopiperidin-3-yl)-4-oxo-3,4-dihydrobenzo[d][1,2,3]triazin-6-yl)azetidine-3-carbonyl)piperazin-1-yl)methyl)-1H-1,2,3-triazol-1-yl)benzamide]",0.018
6,"CC1(C)[C@H](NC(=O)c2ccc(-n3cc(CN4CCN(C(=O)CNc5ccc6nnn(C7CCC(=O)NC7=O)c(=O)c6c5)CC4)nn3)cc2)C(C)(C)[C@H]1Oc1ccc(C#N)c(Cl)c1 (some centres unmarked) [Example 123, N-((1r,3r)-3-(3-chloro-4-cyanophenoxy)-2,2,4,4-tetramethylcyclobutyl)-4-(4-((4-((3-(2,6-dioxopiperidin-3-yl)-4-oxo-3,4-dihydrobenzo[d][1,2,3]triazin-6-yl)glycyl)piperazin-1-yl)methyl)-1H-1,2,3-triazol-1-yl)benzamide]",0.055
7,"CC1(C)C(NC(=O)c2ccc(-c3cnn(C4CCN(CC5CCN(C(=O)C6CCN(c7ccc8nnn(C9CCC(=O)NC9=O)c(=O)c8c7)CC6)CC5)CC4)c3)nc2)C(C)(C)C1Oc1ccc(C#N)c(Cl)c1 (centres unmarked) [Example 124, N-((1r,3r)-3-(3-chloro-4-cyanophenoxy)-2,2,4,4-tetramethylcyclobutyl)-6-(1-(1-((1-(1-(3-(2,6-dioxopiperidin-3-yl)-4-oxo-3,4-dihydrobenzo[d][1,2,3]triazin-6-yl)piperidine-4-carbonyl)piperidin-4-yl)methyl)piperidin-4-yl)-1H-pyrazol-4-yl)nicotinamide]",0.013
8,"CC1(C)C(NC(=O)c2ccc(-c3cnn(C4CCN(CC5CCN(C(=O)CNc6ccc7nnn(C8CCC(=O)NC8=O)c(=O)c7c6)CC5)CC4)c3)nc2)C(C)(C)C1Oc1ccc(C#N)c(Cl)c1 (centres unmarked) [Example 125, N-((1r,3r)-3-(3-chloro-4-cyanophenoxy)-2,2,4,4-tetramethylcyclobutyl)-6-(1-(1-((1-((3-(2,6-dioxopiperidin-3-yl)-4-oxo-3,4-dihydrobenzo[d][1,2,3]triazin-6-yl)glycyl)piperidin-4-yl)methyl)piperidin-4-yl)-1H-pyrazol-4-yl)nicotinamide]",0.0155
9,"CC1(C)C(NC(=O)c2ccc(C#CCC3CCN(CC4CCN(C(=O)C5CCN(c6ccc7nnn(C8CCC(=O)NC8=O)c(=O)c7c6)CC5)CC4)CC3)nc2)C(C)(C)C1Oc1ccc(C#N)c(Cl)c1 (centres unmarked) [Example 126, N-((1r,3r)-3-(3-chloro-4-cyanophenoxy)-2,2,4,4-tetramethylcyclobutyl)-6-(3-(1-((1-(1-(3-(2,6-dioxopiperidin-3-yl)-4-oxo-3,4-dihydrobenzo[d][1,2,3]triazin-6-yl)piperidine-4-carbonyl)piperidin-4-yl)methyl)piperidin-4-yl)prop-1-yn-1-yl)nicotinamide]",0.04
10,"CC1(C)C(NC(=O)c2ccc(C#CCC3CCN(CC4CCN(C(=O)C5CN(c6ccc7nnn(C8CCC(=O)NC8=O)c(=O)c7c6)C5)CC4)CC3)nc2)C(C)(C)C1Oc1ccc(C#N)c(Cl)c1 (centres unmarked) [Example 127, N-((1r,3r)-3-(3-chloro-4-cyanophenoxy)-2,2,4,4-tetramethylcyclobutyl)-6-(3-(1-((1-(1-(3-(2,6-dioxopiperidin-3-yl)-4-oxo-3,4-dihydrobenzo[d][1,2,3]triazin-6-yl)azetidine-3-carbonyl)piperidin-4-yl)methyl)piperidin-4-yl)prop-1-yn-1-yl)nicotinamide]",0.027
11,"CC1(C)C(NC(=O)c2ccc(C#CCC3CCN(CC4CCN(C(=O)CNc5ccc6nnn(C7CCC(=O)NC7=O)c(=O)c6c5)CC4)CC3)nc2)C(C)(C)C1Oc1ccc(C#N)c(Cl)c1 (centres unmarked) [Example 128, N-((1r,3r)-3-(3-chloro-4-cyanophenoxy)-2,2,4,4-tetramethylcyclobutyl)-6-(3-(1-((1-((3-(2,6-dioxopiperidin-3-yl)-4-oxo-3,4-dihydrobenzo[d][1,2,3]triazin-6-yl)glycyl)piperidin-4-yl)methyl)piperidin-4-yl)prop-1-yn-1-yl)nicotinamide]",0.011
12,"CC1(C)C(NC(=O)c2ccc(C#CCC3CCN(CC4CCN(c5ccc6nnn(C7CCC(=O)NC7=O)c(=O)c6c5)CC4)CC3)nc2)C(C)(C)C1Oc1ccc(C#N)c(Cl)c1 (centres unmarked) [Example 129, N-((1r,3r)-3-(3-chloro-4-cyanophenoxy)-2,2,4,4-tetramethylcyclobutyl)-6-(3-(1-((1-(3-(2,6-dioxopiperidin-3-yl)-4-oxo-3,4-dihydrobenzo[d][1,2,3]triazin-6-yl)piperidin-4-yl)methyl)piperidin-4-yl)prop-1-yn-1-yl)nicotinamide]",0.0194
13,"CC1(C)C(NC(=O)c2ccc(C#CC3CCN(CC4CCN(C(=O)C5CCN(c6ccc7nnn(C8CCC(=O)NC8=O)c(=O)c7c6)CC5)CC4)CC3)nc2)C(C)(C)C1Oc1ccc(C#N)c(Cl)c1 (centres unmarked) [Example 130, N-((1r,3r)-3-(3-chloro-4-cyanophenoxy)-2,2,4,4-tetramethylcyclobutyl)-6-((1-((1-(1-(3-(2,6-dioxopiperidin-3-yl)-4-oxo-3,4-dihydrobenzo[d][1,2,3]triazin-6-yl)piperidine-4-carbonyl)piperidin-4-yl)methyl)piperidin-4-yl)ethynyl)nicotinamide]",0.017
14,"CC1(C)C(NC(=O)c2ccc(C#CC3CCN(CC4CCN(C(=O)C5CCN(c6ccc7nnn(C8CCC(=O)NC8=O)c(=O)c7c6)CC5)CC4)CC3)nc2)C(C)(C)C1Oc1ccc(C#N)c(Cl)c1 (centres unmarked) [Example 131, N-((1r,3r)-3-(3-chloro-4-cyanophenoxy)-2,2,4,4-tetramethylcyclobutyl)-6-((1-((1-(1-(3-(2,6-dioxopiperidin-3-yl)-4-oxo-3,4-dihydrobenzo[d][1,2,3]triazin-6-yl)piperidine-4-carbonyl)piperidin-4-yl)methyl)piperidin-4-yl)ethynyl)nicotinamide]",0.0185
15,"CC1(C)C(NC(=O)c2ccc(C#CC3CCN(CC4CCN(C(=O)CNc5ccc6nnn(C7CCC(=O)NC7=O)c(=O)c6c5)CC4)CC3)nc2)C(C)(C)C1Oc1ccc(C#N)c(Cl)c1 (centres unmarked) [Example 132, N-((1r,3r)-3-(3-chloro-4-cyanophenoxy)-2,2,4,4-tetramethylcyclobutyl)-6-((1-((1-((3-(2,6-dioxopiperidin-3-yl)-4-oxo-3,4-dihydrobenzo[d][1,2,3]triazin-6-yl)glycyl)piperidin-4-yl)methyl)piperidin-4-yl)ethynyl)nicotinamide]",0.015
16,"CC1(C)C(NC(=O)c2ccc(C#CC3CCN(CC4CCN(C(=O)COc5ccc6nnn(C7CCC(=O)NC7=O)c(=O)c6c5)CC4)CC3)nc2)C(C)(C)C1Oc1ccc(C#N)c(Cl)c1 (centres unmarked) [Example 133, N-((1r,3r)-3-(3-chloro-4-cyanophenoxy)-2,2,4,4-tetramethylcyclobutyl)-6-((1-((1-(2-((3-(2,6-dioxopiperidin-3-yl)-4-oxo-3,4-dihydrobenzo[d][1,2,3]triazin-6-yl)oxy)acetyl)piperidin-4-yl)methyl)piperidin-4-yl)ethynyl)nicotinamide]",0.015
17,"CC1(C)[C@H](NC(=O)c2ccc(N3CCN(CCCc4cn(-c5ccc6nnn(C7CCC(=O)NC7=O)c(=O)c6c5)nn4)CC3)cc2)C(C)(C)[C@H]1Oc1ccc(C#N)c(Cl)c1 (some centres unmarked) [Example 134, N-((1r,3r)-3-(3-chloro-4-cyanophenoxy)-2,2,4,4-tetramethylcyclobutyl)-4-(4-(3-(1-(3-(2,6-dioxopiperidin-3-yl)-4-oxo-3,4-dihydrobenzo[d][1,2,3]triazin-6-yl)-1H-1,2,3-triazol-4-yl)propyl)piperazin-1-yl)benzamide]",0.0645
